Legend:
[1] = system: G3BP1 NFT2; type: binding, human; conditions: library DMS-BM; bait G3BP1 NFT2; prey CAPRIN1; AQMQGPYNFIQDSM(averaged): mean of the two overlapping peptides over the shared positions
[2] = system: G3BP1 NFT2; type: binding, human; conditions: library DMS-CoV, bait G3BP1 NFT2, prey N, listed as aa = residue placed at this position, column sums to 1

Row | Substance | DMS position-specific score (PSSM value) per amino-acid substitution, averaged [1] | further results
1 | AQMQGPYNFIQDSM(averaged) D12P (AQMQGPYNFIQPSM) | 0.216 | –
2 | AQMQGPYNFIQDSM(averaged) A1W (WQMQGPYNFIQDSM) | 0.05589 | –
3 | AQMQGPYNFIQDSM(averaged) G5P (AQMQPPYNFIQDSM) | 0.02397 | –
4 | AQMQGPYNFIQDSM(averaged) M3K (AQKQGPYNFIQDSM) | 0.006729 | –
5 | AQMQGPYNFIQDSM(averaged) Q2D (ADMQGPYNFIQDSM) | 0.02749 | –
6 | AQMQGPYNFIQDSM(averaged) S13E (AQMQGPYNFIQDEM) | 0.01271 | –
7 | AQMQGPYNFIQDSM(averaged) D12F (AQMQGPYNFIQFSM) | 0.004771 | –
8 | AQMQGPYNFIQDSM(averaged) G5G | 0.2298 | –
9 | AQMQGPYNFIQDSM(averaged) Q2S (ASMQGPYNFIQDSM) | 0.004198 | –
10 | AQMQGPYNFIQDSM(averaged) A1S (SQMQGPYNFIQDSM) | 0.001176 | –
11 | AQMQGPYNFIQDSM(averaged) I10T (AQMQGPYNFTQDSM) | 0.01974 | –
12 | AQMQGPYNFIQDSM(averaged) I10V (AQMQGPYNFVQDSM) | 0.004849 | –
13 | AQMQGPYNFIQDSM(averaged) F9Q (AQMQGPYNQIQDSM) | 0.01043 | –
14 | AQMQGPYNFIQDSM(averaged) D12I (AQMQGPYNFIQISM) | 0.0003022 | –
15 | AQMQGPYNFIQDSM(averaged) S13I (AQMQGPYNFIQDIM) | 0.01393 | –
16 | AQMQGPYNFIQDSM(averaged) D12H (AQMQGPYNFIQHSM) | 0.1155 | –
17 | AQMQGPYNFIQDSM(averaged) Q2E (AEMQGPYNFIQDSM) | 0.09844 | –
18 | AQMQGPYNFIQDSM(averaged) S13V (AQMQGPYNFIQDVM) | 0.1094 | –
19 | AQMQGPYNFIQDSM(averaged) Q2L (ALMQGPYNFIQDSM) | 0.006039 | –
20 | AQMQGPYNFIQDSM(averaged) Q4K (AQMKGPYNFIQDSM) | 4.484e-5 | –
21 | AQMQGPYNFIQDSM(averaged) D12R (AQMQGPYNFIQRSM) | 0.003499 | –
22 | AQMQGPYNFIQDSM(averaged) I10W (AQMQGPYNFWQDSM) | 0.1749 | –
23 | AQMQGPYNFIQDSM(averaged) Q2M (AMMQGPYNFIQDSM) | 0.123 | –
24 | AQMQGPYNFIQDSM(averaged) F9A (AQMQGPYNAIQDSM) | 0 | –
25 | AQMQGPYNFIQDSM(averaged) Q2H (AHMQGPYNFIQDSM) | 0.02779 | –
26 | AQMQGPYNFIQDSM(averaged) Q4E (AQMEGPYNFIQDSM) | 0.0003947 | –
27 | AQMQGPYNFIQDSM(averaged) M3R (AQRQGPYNFIQDSM) | 0.003692 | –

Row | Substance | DMS position-specific score (PSSM value) per amino-acid substitution, averaged [1] | further results
28 | AQMQGPYNFIQDSM(averaged) S13P (AQMQGPYNFIQDPM) | 0 | –
29 | AQMQGPYNFIQDSM(averaged) A1N (NQMQGPYNFIQDSM) | 0.01838 | –
30 | AQMQGPYNFIQDSM(averaged) N8D (AQMQGPYDFIQDSM) | 0.05276 | –
31 | AQMQGPYNFIQDSM(averaged) D12N (AQMQGPYNFIQNSM) | 0.03064 | –
32 | AQMQGPYNFIQDSM(averaged) I10N (AQMQGPYNFNQDSM) | 0.0004895 | –
33 | AQMQGPYNFIQDSM(averaged) Y7L (AQMQGPLNFIQDSM) | 0.1143 | –
34 | AQMQGPYNFIQDSM(averaged) Q11F (AQMQGPYNFIFDSM) | 0.006502 | –
35 | AQMQGPYNFIQDSM(averaged) A1F (FQMQGPYNFIQDSM) | 0.03963 | –
36 | AQMQGPYNFIQDSM(averaged) S13M (AQMQGPYNFIQDMM) | 0 | –
37 | AQMQGPYNFIQDSM(averaged) Q2W (AWMQGPYNFIQDSM) | 0.05769 | –
38 | AQMQGPYNFIQDSM(averaged) D12M (AQMQGPYNFIQMSM) | 0.01204 | –
39 | AQMQGPYNFIQDSM(averaged) Q11I (AQMQGPYNFIIDSM) | 0 | –
40 | AQMQGPYNFIQDSM(averaged) D12D | 0.268 | –
41 | AQMQGPYNFIQDSM(averaged) I10Q (AQMQGPYNFQQDSM) | 0.01591 | –
42 | AQMQGPYNFIQDSM(averaged) N8P (AQMQGPYPFIQDSM) | 0.002565 | –
43 | AQMQGPYNFIQDSM(averaged) A1G (GQMQGPYNFIQDSM) | 0.01098 | –
44 | AQMQGPYNFIQDSM(averaged) A1H (HQMQGPYNFIQDSM) | 0.006137 | –
45 | AQMQGPYNFIQDSM(averaged) Q2Y (AYMQGPYNFIQDSM) | 0.05198 | –
46 | AQMQGPYNFIQDSM(averaged) S13K (AQMQGPYNFIQDKM) | 0 | –
47 | AQMQGPYNFIQDSM(averaged) Y7A (AQMQGPANFIQDSM) | 0 | –
48 | AQMQGPYNFIQDSM(averaged) Q4Y (AQMYGPYNFIQDSM) | 0.002959 | –
49 | AQMQGPYNFIQDSM(averaged) A1I (IQMQGPYNFIQDSM) | 0.00266 | –
50 | AQMQGPYNFIQDSM(averaged) P6H (AQMQGHYNFIQDSM) | 0.008056 | –
51 | AQMQGPYNFIQDSM(averaged) M3P (AQPQGPYNFIQDSM) | 0.0009459 | –
52 | AQMQGPYNFIQDSM(averaged) P6D (AQMQGDYNFIQDSM) | 0.01341 | –
53 | AQMQGPYNFIQDSM(averaged) Q11T (AQMQGPYNFITDSM) | 0.1081 | –
54 | AQMQGPYNFIQDSM(averaged) F9H (AQMQGPYNHIQDSM) | 0 | –

Row | Substance | DMS position-specific score (PSSM value) per amino-acid substitution, averaged [1] | further results
55 | AQMQGPYNFIQDSM(averaged) M14M | 0.2883 | –
56 | AQMQGPYNFIQDSM(averaged) M3H (AQHQGPYNFIQDSM) | 0.02176 | –
57 | AQMQGPYNFIQDSM(averaged) S13L (AQMQGPYNFIQDLM) | 0.0002731 | –
58 | AQMQGPYNFIQDSM(averaged) Q11L (AQMQGPYNFILDSM) | 0.00722 | –
59 | AQMQGPYNFIQDSM(averaged) I10K (AQMQGPYNFKQDSM) | 0.0003536 | –
60 | AQMQGPYNFIQDSM(averaged) A1M (MQMQGPYNFIQDSM) | 0.03265 | –
61 | AQMQGPYNFIQDSM(averaged) M3N (AQNQGPYNFIQDSM) | 0.00226 | –
62 | AQMQGPYNFIQDSM(averaged) Q4R (AQMRGPYNFIQDSM) | 0.00079 | –
63 | AQMQGPYNFIQDSM(averaged) G5Q (AQMQQPYNFIQDSM) | 0.004656 | –
64 | AQMQGPYNFIQDSM(averaged) Y7P (AQMQGPPNFIQDSM) | 0.002813 | –
65 | AQMQGPYNFIQDSM(averaged) M14R (AQMQGPYNFIQDSR) | 0.003652 | –
66 | AQMQGPYNFIQDSM(averaged) G5A (AQMQAPYNFIQDSM) | 0.003112 | –
67 | AQMQGPYNFIQDSM(averaged) I10I | 0.4804 | –
68 | RNAPRITFGGPSDSTG N2I (RIAPRITFGGPSDSTG) | – | DMS PSSM value, N (position 2) ([2]; peptide RNAPRITFGGPSDSTG): 0
69 | APRITFGGPSDSTGSN S10G (APRITFGGPGDSTGSN) | – | DMS PSSM value, S (position 10) ([2]; peptide APRITFGGPSDSTGSN): 0
70 | APRITFGGPSDSTGSN A1N (NPRITFGGPSDSTGSN) | – | DMS PSSM value, A (position 1) ([2]; peptide APRITFGGPSDSTGSN): 0.016
71 | RNAPRITFGGPSDSTG S12V (RNAPRITFGGPVDSTG) | – | DMS PSSM value, S (position 12) ([2]; peptide RNAPRITFGGPSDSTG): 0
72 | APRITFGGPSDSTGSN P9V (APRITFGGVSDSTGSN) | – | DMS PSSM value, P (position 9) ([2]; peptide APRITFGGPSDSTGSN): 0.001999
73 | APRITFGGPSDSTGSN R3V (APVITFGGPSDSTGSN) | – | DMS PSSM value, R (position 3) ([2]; peptide APRITFGGPSDSTGSN): 0.00164
74 | RNAPRITFGGPSDSTG N2T (RTAPRITFGGPSDSTG) | – | DMS PSSM value, N (position 2) ([2]; peptide RNAPRITFGGPSDSTG): 0
75 | RNAPRITFGGPSDSTG T7R (RNAPRIRFGGPSDSTG) | – | DMS PSSM value, T (position 7) ([2]; peptide RNAPRITFGGPSDSTG): 0
76 | RNAPRITFGGPSDSTG G9L (RNAPRITFLGPSDSTG) | – | DMS PSSM value, G (position 9) ([2]; peptide RNAPRITFGGPSDSTG): 0
77 | RNAPRITFGGPSDSTG N2F (RFAPRITFGGPSDSTG) | – | DMS PSSM value, N (position 2) ([2]; peptide RNAPRITFGGPSDSTG): 0
78 | APRITFGGPSDSTGSN P9G (APRITFGGGSDSTGSN) | – | DMS PSSM value, P (position 9) ([2]; peptide APRITFGGPSDSTGSN): 0.003052
79 | APRITFGGPSDSTGSN S10D (APRITFGGPDDSTGSN) | – | DMS PSSM value, S (position 10) ([2]; peptide APRITFGGPSDSTGSN): 0
80 | RNAPRITFGGPSDSTG S12Y (RNAPRITFGGPYDSTG) | – | DMS PSSM value, S (position 12) ([2]; peptide RNAPRITFGGPSDSTG): 0
